Measurements taken from ChEMBL document CHEMBL3885881, “DrugMatrix”.

Organism: Rattus norvegicus
Assay: DrugMatrix - Regimen: Daily Repeat
Assay type: toxicity, organism-based, Sprague-Dawley
Parameters: regimen Daily Repeat, gender Male, age 6-8 weeks
Settings: in vivo, po, route oral GAVAGE, […]; for ABSOLUTE BASOPHIL / ABSOLUTE EOSINOPHIL / ABSOLUTE LYMPHOCYTE / ABSOLUTE MONOCYTE / ABSOLUTE SEGMENTED NEUTROPHIL / BASOPHIL / EOSINOPHIL / ERYTHROCYTE COUNT / HEMATOCRIT / HEMOGLOBIN / LEUKOCYTE COUNT / LYMPHOCYTE / MEAN CORPUSCULAR HEMOGLOBIN / MEAN CORPUSCULAR HEMOGLOBIN CONCENTRATION / MEAN CORPUSCULAR VOLUME / MONOCYTE / NEUTROPHIL / NUCLEATED RED BLOOD CELLS / PLATELET COUNT: tissue Blood; for ALANINE AMINOTRANSFERASE / ALKALINE PHOSPHATASE / ASPARTATE AMINOTRANSFERASE / BLOOD UREA NITROGEN / CARBON DIOXIDE / CHLORIDE / CHOLESTEROL / CREATINE PHOSPHOKINASE / CREATININE / GLUCOSE / LACTATE DEHYDROGENASE / LIPASE / PHOSPHORUS / POTASSIUM / SODIUM / TOTAL BILIRUBIN / TOTAL PROTEIN / URIC ACID: tissue Plasma
[1] = 22 mg/kg, 120 h, dose level High, time 5 day
[2] = 72 h, dose 2.5 mg/Kg, dose level Low, time 3 day
[3] = 120 h, dose 2.5 mg/Kg, dose level Low, time 5 day

OCCN1CCN(CCCN2c3ccccc3Sc3ccc(C(F)(F)F)cc32)CC1 [FLUPHENAZINE]
ABSOLUTE BASOPHIL [1]: 0 CELLS/uL | ABSOLUTE EOSINOPHIL [1]: 112 CELLS/uL | ABSOLUTE LYMPHOCYTE [1]: 12846 CELLS/uL | ABSOLUTE MONOCYTE [1]: 29.33 CELLS/uL | ABSOLUTE SEGMENTED NEUTROPHIL [1]: 379.33 CELLS/uL | BASOPHIL [1]: 0% | EOSINOPHIL [1]: 1.33% | ERYTHROCYTE COUNT [1]: 6.02 x10E6/uL | HEMATOCRIT [1]: 36.97% | HEMOGLOBIN [1]: 14.2 G/DL | LEUKOCYTE COUNT [1]: 13.37 x10E3/uL | LYMPHOCYTE [1]: 95% | MEAN CORPUSCULAR HEMOGLOBIN [1]: 23.6 pg | MEAN CORPUSCULAR HEMOGLOBIN CONCENTRATION [1]: 38.43 G/DL | MEAN CORPUSCULAR VOLUME [1]: 61.37 fL | MONOCYTE [1]: 0.33% | NEUTROPHIL [1]: 3.33% | NUCLEATED RED BLOOD CELLS [1]: 0 /100WBC | PLATELET COUNT [1]: 1170.67 x10E3/uL | ALANINE AMINOTRANSFERASE [1]: 39.33 u/L | ALKALINE PHOSPHATASE [1]: 322.67 u/L | ASPARTATE AMINOTRANSFERASE [1]: 67.67 u/L | BLOOD UREA NITROGEN [1]: 15.67 mg/dL | CARBON DIOXIDE [1]: 26.67 mmol/L | CHLORIDE [1]: 101.33 MEQ/L | CHOLESTEROL [1]: 61.33 mg/dL | CREATINE PHOSPHOKINASE [1]: 190.33 u/L | CREATININE [1]: 0.13 mg/dL | GLUCOSE [1]: 198.67 mg/dL | LACTATE DEHYDROGENASE [1]: 80.67 u/L | LIPASE [1]: 9.67 u/L | PHOSPHORUS [1]: 9.4 mg/dL | POTASSIUM [1]: 5.22 MEQ/L | SODIUM [1]: 144.73 MEQ/L | TOTAL BILIRUBIN [1]: 0.2 mg/dL | TOTAL PROTEIN [1]: 6.13 G/DL | URIC ACID [1]: 0.77 mg/dL | ABSOLUTE BASOPHIL [2]: 0 CELLS/uL | ABSOLUTE EOSINOPHIL [2]: 0 CELLS/uL | ABSOLUTE LYMPHOCYTE [2]: 6619.33 CELLS/uL | ABSOLUTE MONOCYTE [2]: 22 CELLS/uL | ABSOLUTE SEGMENTED NEUTROPHIL [2]: 525.33 CELLS/uL | BASOPHIL [2]: 0% | EOSINOPHIL [2]: 0% | ERYTHROCYTE COUNT [2]: 5.21 x10E6/uL | HEMATOCRIT [2]: 33.8% | HEMOGLOBIN [2]: 13.13 G/DL | LEUKOCYTE COUNT [2]: 7.17 x10E3/uL | LYMPHOCYTE [2]: 92.33% | MEAN CORPUSCULAR HEMOGLOBIN [2]: 25.2 pg | MEAN CORPUSCULAR HEMOGLOBIN CONCENTRATION [2]: 38.83 G/DL | MEAN CORPUSCULAR VOLUME [2]: 64.97 fL | MONOCYTE [2]: 0.33% | NEUTROPHIL [2]: 7.33% | NUCLEATED RED BLOOD CELLS [2]: 0 /100WBC | PLATELET COUNT [2]: 973 x10E3/uL | ALANINE AMINOTRANSFERASE [2]: 49.67 u/L | ALKALINE PHOSPHATASE [2]: 458.33 u/L | ASPARTATE AMINOTRANSFERASE [2]: 79.67 u/L | BLOOD UREA NITROGEN [2]: 13.33 mg/dL | CARBON DIOXIDE [2]: 33.67 mmol/L | CHLORIDE [2]: 99.5 MEQ/L | CHOLESTEROL [2]: 74 mg/dL | CREATINE PHOSPHOKINASE [2]: 223.67 u/L | CREATININE [2]: 0.14 mg/dL | GLUCOSE [2]: 142.33 mg/dL | LACTATE DEHYDROGENASE [2]: 61.33 u/L | LIPASE [2]: 13.67 u/L | PHOSPHORUS [2]: 9.77 mg/dL | POTASSIUM [2]: 6.34 MEQ/L | SODIUM [2]: 144.3 MEQ/L | TOTAL BILIRUBIN [2]: 0.13 mg/dL | TOTAL PROTEIN [2]: 5.33 G/DL | URIC ACID [2]: 0.6 mg/dL | ABSOLUTE BASOPHIL [3]: 0 CELLS/uL | ABSOLUTE EOSINOPHIL [3]: 0 CELLS/uL | ABSOLUTE LYMPHOCYTE [3]: 9833.67 CELLS/uL | ABSOLUTE MONOCYTE [3]: 155 CELLS/uL | ABSOLUTE SEGMENTED NEUTROPHIL [3]: 711.33 CELLS/uL | BASOPHIL [3]: 0% | EOSINOPHIL [3]: 0% | ERYTHROCYTE COUNT [3]: 5.5 x10E6/uL | HEMATOCRIT [3]: 35.1% | HEMOGLOBIN [3]: 13.53 G/DL | LEUKOCYTE COUNT [3]: 10.7 x10E3/uL | LYMPHOCYTE [3]: 91.67% | MEAN CORPUSCULAR HEMOGLOBIN [3]: 24.63 pg | MEAN CORPUSCULAR HEMOGLOBIN CONCENTRATION [3]: 38.57 G/DL | MEAN CORPUSCULAR VOLUME [3]: 63.83 fL | MONOCYTE [3]: 1% | NEUTROPHIL [3]: 7.33% | NUCLEATED RED BLOOD CELLS [3]: 0 /100WBC | PLATELET COUNT [3]: 1129.67 x10E3/uL | ALANINE AMINOTRANSFERASE [3]: 57 u/L | ALKALINE PHOSPHATASE [3]: 337 u/L | ASPARTATE AMINOTRANSFERASE [3]: 75 u/L | BLOOD UREA NITROGEN [3]: 15 mg/dL | CARBON DIOXIDE [3]: 28 mmol/L | CHLORIDE [3]: 99 MEQ/L | CHOLESTEROL [3]: 72 mg/dL | CREATINE PHOSPHOKINASE [3]: 195.33 u/L | CREATININE [3]: 0.18 mg/dL | GLUCOSE [3]: 180 mg/dL | LACTATE DEHYDROGENASE [3]: 77.33 u/L | LIPASE [3]: 10.67 u/L | PHOSPHORUS [3]: 9.47 mg/dL | POTASSIUM [3]: 4.99 MEQ/L | SODIUM [3]: 144.87 MEQ/L | TOTAL BILIRUBIN [3]: 0.23 mg/dL | TOTAL PROTEIN [3]: 6.1 G/DL | URIC ACID [3]: 0.5 mg/dL
